From PMC5671725, “Fluorinated Adenosine A2A Receptor Antagonists Inspired by Preladenant as Potential Cancer Immunotherapeutics” (International Journal of Medicinal Chemistry, 2017)
Converted amounts (≈) assume the structure as drawn.

What was measured:
A2AR [1] = molecular target: T1, A2AR (Mus musculus, UniProt Q60613); design: endogenous in cells; method as in PMID 24126093; details: compared with xanthine 2; cited from earlier work
A2AR [2] = molecular target: T1, A2AR; design: endogenous in cells; host or cells: primary lymphocytes from the spleen of C57/BL6 mice; method as in PMID 24126093; details: compared with xanthine 2; cited from earlier work
[3] = design: method as in PMID 24164628, PMID 25311639, PMID 25174927; details: Parkinson's disease; cited from earlier work
A2AR [4] = molecular target: T1, A2AR; experiment: Cytokine release assay: IFN-gamma secretion by anti-CD3 activated splenocytes treated with CGS; format: cell-based, C57BL/6 mice; design: endogenous in cells; details: 0.1 µg/mL anti-CD3, 1 µM CGS plus 1 µM compound, one day, ELISA
Procedure: The second immunoassay assesses secretion of the cytokine IFN-gamma, since it is considered to be sensitive to the A2AR signaling pathway. In these assays, during T cell receptor (TCR) activation by the CD3 ligand, C57BL/6 mice splenocytes T cells are incubated with A2AR agonist CGS to inhibit IFN-gamma secretion resulting from A2AR-induced immunosuppression via intracellular cAMP. Effective A2AR antagonists block the A2AR-activated signal, thus restoring secretion of the cytokine to potentiate and prolong the immune response.
Figure 6 The IFN-gamma production by splenocytes after activation with 0.1 µg/mL anti-CD3 and when treated with vehicle, 1 µM CGS, and 1 µM CGS plus 1 µM compounds 29, 2 (KW-6002), 3 (KW-PEG), and 4 (preladenant) separately is shown. The IFN-gamma levels were determined in the supernatant one day following stimulation using quantitative ELISA and are expressed as pg/mL. Data shown represent mean ± SEM of triplicate samples.
(§1) Measuring functionality of A2AR antagonism by cAMP assay
Stimulation of intracellular cAMP production and measurement of cAMP levels were performed as described previously.[18b] […] Levels of cAMP were determined by ELISA (Amersham Biosciences, Buckinghamshire, UK). […]

A2ARs = molecular target: T2, A2ARs (Mus musculus, UniProt Q60613); experiment: Concanavalin A (ConA)-induced liver damage assay; format: in vivo; details: female C57BL/6 mice, 2 mg kg^-1 compound then Con A 20 mg kg^-1, evaluated at 8 h
T2 construct: from tissue; host or cells: whole animal, female C57BL/6 mice (in vivo)
Procedure: To select lead compounds for immunotherapy application, an in vivo Concanavalin A (ConA)-induced liver damage assay was carried out in C57BL/6 mice through the pharmacological activation and deactivation of A2ARs. A variety of compounds were screened including 2, 3, and 4 [10, 18, 19]. […] Fluorinated analogs were envisioned to potentially serve as leads to ultimately be labeled at the distal position with fluorine-18 (t1/2 = 109.8 min), for diagnostic imaging with positron emission tomography (PET). A series of fluorinated PEG groups with increasing chain lengths were proposed for chemical modification to map the structure-activity relationship (SAR). Such modifications increase both hydrophilicity and molecular weight (MW), potentially to reduce blood-brain barrier (BBB) penetration as predicted by the central nervous system multiparameter optimization (MPO) score reported by Wager et al..
Figure 2 ConA-induced liver damage in C57BL/6 mice via CGS (6), 2, 3 and 4. Female C57BL/6 mice (n = 5) were first injected with A2AR agonist CGS (6, 2 mg kg^−1), 2 mg kg^−1 2, 3, and 4 separately, and then Con A (20 mg kg^−1). Con A-induced liver damage evaluated at 8 h.

A2AR [5] = molecular target: T1, A2AR; experiment: Inhibition of A2AR-induced (CGS21680) intracellular cAMP accumulation in lymphocytes; format: cell-based, C57/BL6 mice; design: endogenous in cells; host or cells: primary lymphocytes from the spleen of C57/BL6 mice; details: 1 µM CGS plus 1 μM compound, 15 min, cAMP ELISA
Procedure: Bioassay of compounds 27–31 and 40 and their parent compounds (4 and 5a) was conducted using two functional assays that evaluate A2AR binding-dependent signaling through A2AR on the surface of T cells. The first assay screens compounds on the basis of their extent of inhibition of A2AR-induced intracellular cAMP accumulation in A2AR expressing lymphocytes. The A2AR agonist, CGS21680 (CGS, 6), was used to activate A2AR.
Figure 4 Intracellular cAMP levels in lymphocytes after incubation with vehicle, 1 µM CGS, and 1 µM CGS plus 1 μM of compounds 4 (preladenant), 27–31, 5a (tozadenant), 40, 2 (KW-6002), and 3 (KW-PEG) are shown. The intracellular cAMP levels were determined 15 min following stimulation using quantitative cAMP ELISA and are expressed as fmol/10^6 cells. Data shown represent mean ± SEM of triplicate samples.
as §1
Stimulation of intracellular cAMP production and measurement of cAMP levels were performed as described previously.[18b] Lymphocytes were isolated from the spleen of C57/BL6 mice and suspended at a concentration of 400,000 cells/well, and then treated with 1 µM CGS 21680 6 (A2AR-specific agonist; from Tocris, Ellisville, MO) with or without KW-6002 2, KW-PEG 3, preladenant 4, tozadenant 5a and their PEGylated analogs 27-31 and 40 (at a concentration of […]). The cells were incubated for 15 min at 37 °C , and the reaction was stopped by addition of 1 N hydrochloric acid. Levels of cAMP were determined by ELISA (Amersham Biosciences, Buckinghamshire, UK). All treatment groups were performed in triplicate. […]

[6] = Aqueous pH 7.4 solubility; format: physicochemical; details: aqueous buffer, thermodynamic from solid; 0.1 M phosphate buffer pH 7.4, 25°C, 20-24 hours
Procedure: (§2) Determination of Physicochemical Properties
(§3) Aqueous pH 7.4 Solubility
(§4) Compounds were dried down from 10 mM DMSO solutions using centrifugal evaporation techniques. Phosphate buffer (0.1 M pH 7.4) was added and StirStix inserted in the glass vials.
Agitation was then performed at a constant temperature of 25°C for 20 -24 hours. The vials were then subjected to double centrifugation (with a tip wash in between) to eliminate any residues of the dried compound. The solutions were then diluted and quantitated using LC/MS/MS. […]

[7] = Human plasma protein binding (equilibrium dialysis, RED device); format: in vitro ADME; details: pH 7.4, 10 µM initial concentration, 37°C, read-out: Human PPB (converted)
Procedure: Figure S1. Docking results of compounds 27-29 via Glide XP method. The H-bond interaction is represented as a pink arrow, pi-pi stacking as a green arrow. (A) Compound 27 docking pattern. (B) Compound 28 docking pose. (C) Compound 29 docking result. Pictures are rendered […]
as §2, §3, §4
Agitation was then performed at a constant temperature of 25°C for 20 -24 hours. The vials were then subjected to double centrifugation (with a tip wash in between) to eliminate any residues of the dried compound. The solutions were then diluted and quantitated using LC/MS/MS.
A shake-flask method was employed to determine octanol-water distribution coefficients at pH 7.4 (Log D7.4). The aqueous solution used was 10 mM sodium phosphate pH 7.4 buffer. The method was validated for Log D7.4 ranging from -2 to 5.0.
Human Plasma Protein Binding (PPB)
PPB was determined using equilibrium dialysis (RED device) to separate free from bound compound. The amount of compound in plasma (10 µM initial concentration) and in dialysis […]
(§5) buffer (pH 7.4 phosphate buffer) was measured by LC-MS/MS after equilibration at 37°C in a dialysis chamber. The fraction unbound (fu) is reported.
(§6) In vitro intrinsic clearance was determined from human liver microsomes or rat hepatocytes using standard methods. Following incubation and preparation, the samples were analyzed using […]
(§7) µl/min/mg or µl/min/1 million cells.

[8] = Log D7.4 shake-flask octanol-water; format: physicochemical; details: octanol / 10 mM sodium phosphate pH 7.4, read-out: logD7.4
Procedure: Determination of Physicochemical Properties […]
A shake-flask method was employed to determine octanol-water distribution coefficients at pH
7.4 (Log D7.4). The aqueous solution used was 10 mM sodium phosphate pH 7.4 buffer. The
method was validated for Log D7.4 ranging from -2 to 5.0. […]

[9] = Intrinsic clearance in human liver microsomes; format: in vitro ADME; details: read-out: HLM CLint
Procedure: as §5, §6, §7

[10] = Intrinsic clearance in rat hepatocytes; format: in vitro ADME
Procedure: as §5, §6, §7

CL8-1 melanoma = tested on: CL8-1 melanoma; design: method as in PMID 18163162, PMID 17404693, PMID 18404426, PMID 18311159, PMID 19201652; details: mice; cited from earlier work

T1 sequence (Q60613 whole entry): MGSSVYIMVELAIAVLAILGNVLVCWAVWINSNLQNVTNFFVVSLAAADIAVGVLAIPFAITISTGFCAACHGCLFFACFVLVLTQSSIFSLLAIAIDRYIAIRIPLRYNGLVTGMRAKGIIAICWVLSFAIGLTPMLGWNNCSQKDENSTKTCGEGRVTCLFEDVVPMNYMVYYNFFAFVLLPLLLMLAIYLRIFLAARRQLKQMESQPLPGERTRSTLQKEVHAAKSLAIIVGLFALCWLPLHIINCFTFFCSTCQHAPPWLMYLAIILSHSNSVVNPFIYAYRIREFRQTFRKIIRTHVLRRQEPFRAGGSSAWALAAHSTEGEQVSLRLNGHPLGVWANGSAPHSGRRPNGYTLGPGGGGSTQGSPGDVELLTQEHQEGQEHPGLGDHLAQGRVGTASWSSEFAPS
T2 sequence (Q60613 whole entry): as above

Compound | solubility [6] | fraction unbound at 10 µM [7] | logD [8] | microsomal CLint [9] | Rat hepatocyte CLint [10] | Antagonism of CGS-mediated intracellular cAMP accumulation (A2AR [5]) | other results
CCn1c(=O)c2c(nc(/C=C/c3ccc(C(=O)OCCOCCOCCOCCOCCOCCOCCOCCOC)c(OC)c3)n2C)n(CC)c1=O [Compound 3] | – | – | – | – | – | – | Cytokine IFN-gamma restoration (A2AR [1]): enhanced properties; cAMP suppression (A2AR [2]): enhanced properties
COCCOc1ccc(N2CCN(CCn3ncc4c3nc(N)n3nc(-c5ccco5)nc43)CC2)cc1 [Compound 4, preladenant] | – | – | – | – | – | – | Efficacy in Phase III trials [3]: failed to show efficacy; Restoration of IFN-gamma secretion (A2AR [4]): superior restoration of IFN-gamma secretion compared to either 2 or 3; ConA-induced liver damage (A2ARs): most severe immune induced liver damage
COc1ccc(N2CCOCC2)c2sc(NC(=O)N3CCC(C)(O)CC3)nc12 [Compound 5a, tozadenant, reference compound] | – | – | – | – | – | inferior antagonism to that of compounds 2 and 3 | –
COCCOCCOCCOCCOCCOCCOCCOCCOc1ccc(N2CCN(C(=O)Nc3nc4c(OC)ccc(N5CCOCC5)c4s3)CC2)cc1 [Compound 40] | – | – | – | – | – | no suppression of intracellular cAMP accumulation | –
Nc1nc(NCCc2ccc(O)cc2)nc2nc(-c3ccco3)nn12 [Compound 1, ZM241385] | – | – | – | – | – | – | Growth of CL8-1 melanoma (CL8-1 melanoma): delayed growth of CL8-1 melanoma in mice; Levels of endogenous antitumor T cells (CL8-1 melanoma): increased levels of endogenous antitumor T cells
Nc1nc2c(cnn2CCN2CCN(c3ccc(OCCOCCOCCOCCOCCOCCF)cc3)CC2)c2nc(-c3ccco3)nn12 [Compound 30] | – | – | – | – | – | decreased antagonism | –
COCCOCCOCCOCCOCCOCCOCCOCCOc1ccc(N2CCN(CCn3ncc4c3nc(N)n3nc(-c5ccco5)nc43)CC2)cc1 [Compound 31] | – | – | – | – | – | decreased antagonism | –

The next lines start with results.

solubility [6] | fraction unbound at 10 µM [7] | logD [8] | microsomal CLint [9] | Rat hepatocyte CLint [10] | Compound | Antagonism of CGS-mediated intracellular cAMP accumulation (A2AR [5]) | other results
74 µM (≈ 36.4 µg/mL) | 0.01 | 2.8 | 16.5 µL/min/mg | 29.9 μL/min/10^6 | Nc1nc2c(cnn2CCN2CCN(c3ccc(OCCF)cc3)CC2)c2nc(-c3ccco3)nn12 [Compound 27] | – | –
10 µM (≈ 5.8 µg/mL) | 0.017 | 2.3 | 66.1 µL/min/mg | 72.9 μL/min/10^6 | Nc1nc2c(cnn2CCN2CCN(c3ccc(OCCOCCOCCF)cc3)CC2)c2nc(-c3ccco3)nn12 [Compound 29] | – | Restoration of IFN-gamma secretion (A2AR [4]): superior restoration of IFN-gamma secretion compared to either 2 or 3
2 µM (≈ 1.07 µg/mL) | 0.013 | 2.5 | 71.9 µL/min/mg | 12.8 μL/min/10^6 | Nc1nc2c(cnn2CCN2CCN(c3ccc(OCCOCCF)cc3)CC2)c2nc(-c3ccco3)nn12 [Compound 28] | – | –
